Test results reported in article PMC7011955, “Synthesis and biological evaluation of certain hydrazonoindolin-2-one derivatives as new potent anti-proliferative agents” (Journal of Enzyme Inhibition and Medicinal Chemistry, 2018).
Entries after “also recorded” stand apart in the source; their conditions may differ. Like-named read-outs stand apart in the source and are kept apart here.

Key:
A-549 cells [1] = assay: Reduction in total cell number, DAPI labeling and imaging cytometry; type: cell-based; settings: Homo sapiens, A549
Method: (§1) Cell cycle effects of the synthesised compounds 7b and 10e were determined adopting the reported procedures[14]^,[15].
(§2) In this study, cancer cells derived from lung adenocarcinoma (A-549) were used to evaluate the effects of compounds 7b and 10e on various aspects of the cell cycle progression. Both immunofluorescent imaging of phosphorylated Rb protein and total DNA content of each cell were explored to determine the activity of compounds 7b and 10e over a range of concentrations less than 100 nM to 50 µM (Figures 3–5).
Figure 3. Effects on number and cell cycle distribution. A-549 cells were treated with dose curve. Compound 7b (left) or 10e (right). […]

[2] = tested on: colon cancer HT-29 cell line; assay: CellTiter-Glo Luminescent cell viability assay, anti-proliferative activity, HT-29; type: cell-based, human; settings: Homo sapiens, HT-29; 30 µM single concentration, quadruplicate; read-out: Growth inhibition % HT-29
Method: (§3) The anti-proliferative activity of the title compounds 3a-e, 5a-e, 7a-c, and 10a-l towards cancer cell lines, normal cell lines, and multidrug-resistant lung cancer NCI-H69AR cell line was determined using CellTiter-Glo™ Luminescent cell viability assay according to the previously published procedures[14]^,[15].
(§4) The cancer cell growth inhibitory activity of the synthesised 25 compounds 3a-e, 5a-e, 7a-c, and 10a-l was evaluated in vitro towards three human cancer cell lines, namely lung cancer A-549, human colon cancer HT-29, and breast cancer ZR-75 cell lines using CellTiter-Glo™ Luminescent cell viability assay. Sunitinib was included in this assay as a reference drug.
(§5) The prepared hydrazonoindolin-2-ones were first evaluated at preliminary anti-proliferative assay against the three cancer cell lines in quadruplicate at a single concentration of 30 µM. The data presented as percentage growth inhibition (GI%) caused by the test compounds (Table 1).

Intestine IEC-6 cells = assay: Cell growth inhibition, non-tumorigenic IEC-6; type: cell-based; settings: Rattus norvegicus, maximum 25 µM, quadruplicate
Method: as §3
(§6) The cell growth inhibitory activity of compounds 7b and 10e was examined towards three non-tumorigenic cell lines to estimate their selectivity for tumor cells. A-549 human non-small cell lung cancer (NSCLC) cell line was included in the assay for comparison. […] IEC-6 cells derived from rat intestine show morphologic and karyotypic features of normal intestinal epithelial cells. Fibroblasts derived from embryonic tissue from mice (Swiss-3t3) are both non-tumorigenic and contact inhibited. Compounds 7b and 10e were tested quadruplicate at maximum concentrations of 25 µM, with subsequent 10 serially diluted concentrations.

[3] = tested on: Fibroblast Swiss-3t3 cells; assay: Cell growth inhibition, non-tumorigenic Swiss-3t3; type: cell-based, mice; settings: Mus musculus, maximum 25 µM, quadruplicate
Method: as §3, §6

Breast MCF-10A cells = assay: Cell growth inhibition, non-tumorigenic MCF-10A; type: cell-based; settings: Homo sapiens, maximum 25 µM, quadruplicate
Method: as §3, §6

[4] = tested on: phosphorylated retinoblastoma (Rb) protein in A-549 cells; assay: Immunofluorescent imaging of phosphorylated Rb protein; type: cell-based, human; settings: for levels of phosphorylated Rb protein: A-549, less than 100 nM to 50 µM; for IC50: Homo sapiens, A549
Method: as §1, §2

A-549 cells [5] = assay: Cell cycle distribution by DNA content; type: cell-based, human
Method: as §1, §2
Figure 3. Effects on number and cell cycle distribution. A-549 cells were treated with dose curve. Compound 7b (left) or 10e (right). Cell number per cell cycle was determined by DNA content by DAPI fluorescent labeling and imaging cytometry following 48 h treatment.

[6] = tested on: A-549, ZR-75 and HT-29 cell lines; assay: Average anti-proliferative activity over the three cancer cell lines; type: cell-based, human; settings: average over A-549, ZR-75, HT-29; for Average growth inhibition % / inhibition at 30 µM: 30 µM; for inhibition at 30 µM / IC50: Homo sapiens; for inhibition at 30 µM: read-out: Average growth inhibition %
Method: as §3, §4, §5

[7] = tested on: NCI-H69AR cell line (expresses ABCC1 efflux pump); assay: Growth inhibition of multidrug resistant lung cancer cell line; type: cell-based
Method: as §3
The anti-proliferative activity of compounds 7b and 10e was evaluated towards multidrug resistant lung cancer cell line (NCI-H69AR), which expresses the ABCC1 efflux pump protein. […] Furthermore, the H69AR cells manifested a lesser degree of resistance to the reference drug, Sunitinib (1.9-fold less sensitive).

[8] = tested on: breast cancer ZR-75 cell line; assay: CellTiter-Glo Luminescent cell viability assay, anti-proliferative activity, ZR-75; type: cell-based; settings: Homo sapiens, ZR75; 30 µM single concentration, quadruplicate; read-out: Growth inhibition % ZR-75
Method: as §3, §4, §5

[9] = tested on: colon cancer HT-29 cell line; assay: CellTiter-Glo Luminescent cell viability assay, anti-proliferative activity, HT-29; type: cell-based; settings: Homo sapiens, mean ± SD of four separate experiments
[10] = tested on: breast cancer ZR-75 cell line; assay: CellTiter-Glo Luminescent cell viability assay, anti-proliferative activity, ZR-75; type: cell-based, human
[11] = tested on: lung cancer A-549 cell line; assay: CellTiter-Glo Luminescent cell viability assay, anti-proliferative activity, A-549; type: cell-based, human; settings: for inhibition at 30 µM: A549, 30 µM single concentration, read-out: Growth inhibition % A-549
Method: as §3, §4, §5

[12] = tested on: IEC-6, MCF-10A, Swiss-3t3 vs A-549 cell lines; assay: Mean tumor selectivity index, non-tumorigenic lines vs A-549; type: cell-based; settings: non-tumorigenic IEC-6, MCF-10A
Excerpt: as §6

[13] = A-549, 24 h treatment, read-out: IC50 for reductions in the total cell number, 24 h
[14] = A-549, 48 h treatment, read-out: IC50 for reductions in the total cell number, 48 h
[15] = A-549, 24 h treatment, read-out: IC50 for reduction in Rb phosphorylation, 24 h
[16] = A-549, 48 h treatment, read-out: IC50 for reduction in Rb phosphorylation, 48 h
[17] = Homo sapiens, ZR75, mean ± SD of four separate experiments
[18] = Homo sapiens, A549, mean ± SD of four separate experiments, read-out: IC50 A-549
[19] = Homo sapiens, A549, selectivity assay, maximum 25 µM, quadruplicate, read-out: IC50 NSCLC A-549
[20] = Homo sapiens, A549, sensitive line in comparison with resistant NCI-H69AR, read-out: IC50 Sensitive A-549
[21] = mean ± SD of four separate experiments, read-out: IC50 A-549

SMILES | IC50 [4, 15] | IC50 [6] | IC50 [7] | IC50 [9] | IC50 [10, 17] | melting point | IC50 [11, 18] | IC50 [11, 19] | IC50 [11, 20] | inhibition at 30 µM [2] | Cell cycle effects (A-549 cells [5]) | inhibition at 30 µM [6] | inhibition at 30 µM [8] | inhibition at 30 µM ([11]; Homo sapiens, quadruplicate) | Mean tumor selectivity [12] | further results
O=C1Nc2ccc(Cl)cc2C1=NNc1nc(-c2ccccc2)cs1 [Compound 10e, 5-Chloro-3–(2-(4-phenylthiazol-2-yl)hydrazono)indolin-2-one] | 7.59 ± 0.38 µM | 4.66 µM | 16 µM | 7.25 ± 0.83 µM | 1.95 ± 1.03 µM | 292 to 294 °C | 4.79 ± 0.45 µM | 4.13 ± 0.61 µM | 4.1 ± 0.61 µM | 85.7 ± 10.2% | increase in the percentage of cells in the G1 phase of the cell cycle with corresponding decreases in S- and G2/M phases; also recorded: G1 increased and G2/M-phases decreased | > 80% | 89.3 ± 7.2% | 80.4 ± 6% | 1.8 | IC50 (A-549 cells [1]; [13]): 7.38 ± 1.04 µM; IC50 (A-549 cells [1]; [14]): 7.27 ± 1.15 µM; IC50 (Intestine IEC-6 cells): 8.98 ± 1.25 µM; IC50 [3]: 8.51 ± 1.01 µM; IC50 (Breast MCF-10A cells): 5.37 ± 0.61 µM; levels of phosphorylated Rb protein [4]: significantly reduced in a dose-dependent manner; IC50 [4, 16]: 12.5 ± 2.1 µM; Average growth inhibition % [6]: 85.1%
CCN(CC)CCNC(=O)c1c(C)[nH]c(/C=C2\C(=O)Nc3ccc(F)cc32)c1C [Sunitinib, reference compound] | 3.18 ± 0.07 µM | – | 5.8 ± 0.52 µM | 5.87 ± 0.3 µM | – | – | 10.1 ± 0.8 µM | 3.06 ± 0.9 µM | 3.1 ± 0.9 µM | 85.7 ± 2.7% | G1 decreased and G2/M-phases increased | 78.7% | 90.7 ± 4.5% | 59.5 ± 2.3% | 1.4 | –
Cc1ccc(-c2csc(NN=C3C(=O)Nc4ccccc43)n2)cc1 [Compound 10b, 3–(2-(4–(4-Tolyl)thiazol-2-yl)hydrazono)indolin-2-one] | – | > 28.2 µM | – | > 30 µM | 24.6 µM | 284 to 286 °C | > 30 µM | – | – | 33.9 ± 21.2% | – | 40.1% | 62.1 ± 10.7% | 24.4 ± 14.1% | – | IC50 [11, 21]: > 30 µM
COC(=O)c1ccc(C=NN=C2C(=O)Nc3ccc(Br)cc32)cc1 [Compound 3e, Methyl 4-(((5-bromo-2-oxoindolin-3-ylidene)hydrazono)methyl)benzoate] | – | > 27.8 µM | – | > 30 µM | 23.3 µM | 283 to 285 °C | > 30 µM | – | – | 26.3 ± 24.4% | – | 41.1% | 55.9 ± 18.2% | -4.2 ± 9.3% | – | IC50 [11, 21]: > 30 µM
Cc1csc(C=NN=C2C(=O)Nc3ccc(Br)cc32)n1 [Compound 5e, 5-Bromo-3-(((4-methylthiazol-2-yl)methylene)hydrazono)indolin-2-one] | – | 7.49 µM | – | 8.51 µM | 2.93 ± 0.46 µM | 248 to 250 °C | 3.54 ± 0.42 µM | – | – | 99 ± 1.1% | – | 97.1% | 96.9 ± 2.4% | 95.3 ± 3.1% | – | –

Now from value to molecule, other results behind:

IC50 [4, 15] | IC50 [6] | IC50 [7] | IC50 [9] | IC50 [10, 17] | melting point | IC50 [11, 18] | IC50 [11, 19] | IC50 [11, 20] | SMILES | inhibition at 30 µM [2] | Cell cycle effects (A-549 cells [5]) | inhibition at 30 µM [6] | inhibition at 30 µM [8] | inhibition at 30 µM ([11]; Homo sapiens, quadruplicate) | Mean tumor selectivity [12] | further results
12.1 ± 0.6 µM | 2.14 µM | 16 µM | 2.75 ± 0.31 µM | 1.37 ± 0.23 µM | > 300 °C | 2.29 ± 0.21 µM | 3.84 ± 0.67 µM | 3.8 ± 0.67 µM | O=C1Nc2ccc(Cl)cc2C1=NN=Cc1ccn[nH]1 [Compound 7b, 3-(((1H-pyrazol-5-yl)methylene)hydrazono)-5-chloroindolin-2-one] | 94.9 ± 1.8% | decrease in the percentage of cells in the G1 phase of the cell cycle with corresponding increase in the G2/M-phases; also recorded: G1 decreased and G2/M-phases increased | > 80% | 82.3 ± 15.2% | 91.5 ± 1.3% | 1.6 | IC50 (A-549 cells [1]; [13]): 12.7 ± 13.6 µM; IC50 (A-549 cells [1]; [14]): 8.08 ± 0.95 µM; IC50 (Intestine IEC-6 cells): 8.7 ± 4.32 µM; IC50 [3]: 6.85 ± 0.76 µM; IC50 (Breast MCF-10A cells): 3.42 ± 0.45 µM; levels of phosphorylated Rb protein [4]: significantly reduced in a dose-dependent manner; IC50 [4, 16]: 13.6 ± 0.6 µM; Average growth inhibition % [6]: 89.6%
– | 4.37 µM | – | 6.15 ± 0.51 µM | 2.09 ± 0.12 µM | 293 to 295 °C | 4.87 ± 0.49 µM | – | – | O=C1Nc2ccc(Cl)cc2C1=NN=Cc1nccs1 [Compound 5b, 5-Chloro-3-((thiazol-2-ylmethylene)hydrazono)indolin-2-one] | 96.2 ± 4.5% | – | 94.9% | 95 ± 8.2% | 93.6 ± 5.4% | – | –
– | 13.5 µM | – | 15.3 ± 1.93 µM | 12.7 ± 2.4 µM | 260 to 262 °C | 12.5 ± 1.73 µM | – | – | O=C1Nc2ccc(Br)cc2C1=NN=Cc1nccs1 [Compound 5d, 5-Bromo-3-((thiazol-2-ylmethylene)hydrazono)indolin-2-one] | 98.5 ± 3.1% | – | 96.6% | 96.4 ± 1.5% | 94.8 ± 2.5% | – | –
– | > 27.7 µM | – | > 30 µM | > 30 µM | 283 to 285 °C | 22.9 ± 3.51 µM | – | – | O=C1Nc2ccccc2C1=NN=Cc1ccn[nH]1 [Compound 7a, 3-(((1H-pyrazol-5-yl)methylene)hydrazono)indolin-2-one] | 60.8 ± 13.1% | – | 43% | 60.1 ± 5.8% | 8.2 ± 15.1% | – | IC50 ([10]; mean ± SD of four separate experiments): > 30 µM
